Reference: patent US20220288052A1, “COMPOUND FOR COMBINATION TREATMENT” (priority 2019, published 2022)
Read-outs that look alike come from different tables or passages of the source.

Experiments:
5-HT transporter [1] = molecular target: 5-HT transporter (Rattus norvegicus, UniProt P31652); assay: ^3H-Citalopram binding, rat
Text: Compound (I) has been characterized as a monoamine reuptake inhibitor, based on the profile in a series of functional assays (Table 2).

Nicotinic α3β4 = Nicotinic α3β4 (Homo sapiens, UniProt P30926+P32297); assay: Selectivity screen, Nicotinic α3β4; type: binding
[2] = tested on: brain levels of serotonin (5-HT); assay: In vivo microdialysis, 5-HT; set-up: species or system rat
Protocol: The purpose of the present study was to examine, by in vivo microdialysis technique, the effects after administration of compound (I) on brain levels of serotonin, noradrenalin and dopamine within the ventral hippocampus (Hipp), prefrontal cortex (PFC), striatum (STR) and nucleus accumbens (N.Acc) of anaesthetized rats and mice. […] Compound (I) was tested following subcutaneous injections at dose levels between 0.25-30 mg/kg.

[3] = molecular target: T1, dopamine transporter (DAT) (Mus musculus, UniProt Q61327); assay: MPTP model of DAT inhibition (striatal dopamine depletion); type: in vivo, C57 mouse; set-up: Dopamine Mean ± SEM / DOPAC Mean ± SEM / HVA Mean ± SEM: unit not given here
T1 construct: in vivo DAT transporter occupancy (open bars) in mouse striatum; from tissue; host or cells: mouse striatum (in vivo; C57 mice in the MPTP model)
Text: In this model compound (I) induced protection against the dopamine depletion induced by the entry of the MPTP metabolite MPP+ into the dopamine terminals of the mouse C57 striatal tissue.

DA transporter = molecular target: T2, DA transporter (Mus musculus, UniProt Q61327); assay: In vivo ^3H-WIN 35.428 binding (DA transporter occupancy), PD/PK
T2 construct: in vivo DAT transporter occupancy (open bars) in mouse striatum; from tissue; host or cells: mouse striatum (in vivo; C57 mice in the MPTP model)
Protocol: The relationship between brain concentrations of compound (I) and transporter occupancy was investigated in in vivo ^3H-WIN 35.428 binding in mice. A relationship between increasing plasma and brain concentrations with each increase in dose level, and a corresponding increase in CNS in vivo DA transporter occupancy 90 min post administration. In both cases there was a close correlation between plasma and brain concentrations and in vivo transporter occupancy in brain, the brain to plasma ratio was approximately 4 at 3, 10 and 30 mg/kg (FIG. 1). […] The inhibition of in vivo WIN binding was measured 90 min after p.o. administration of the compound.
(§1) The in vivo receptor occupancy (RO %) of compound (I) was calculated at the MED values (DOSE) in mFST and in the mouse motility test using the formula RO % (estimated)=DOSE 100/(ED50+DOSE). The calculations were based on ED50 values in ex vivo uptake of 5-HT and NA and WIN in vivo binding.
It is known that the critical factor for psychomimetic side effects of a dopaminergic drug is the speed of inhibition of the DA transporter rather than the increase in DA release per se.

5-HT transporter [4] = molecular target: T3, 5-HT transporter (Mus musculus, UniProt Q60857); assay: Ex vivo 5-HT uptake in mice
T3 construct: from tissue; host or cells: tissue of dosed animals (ex vivo)
Protocol: as §1

[5] = Tissue distribution after single dose, mouse; type: in vivo; details: po; for AUC(0-t): female, NMRI, mouse 10 mg/kg p.o., read-out: AUC(0-24 h); for half-life: female NMRI mouse 10 mg/kg p.o., read-out: T½ (converted)
Protocol: Compound (I) was dosed to female NMRI mice 10 mg/kg p.o. Plasma was taken 0.5, 1, 2, 4, 6 and 24 post dose. Brain, liver and lung were taken 1, 4 and 24 hours post dose.
AUC and T½ were calculated for plasma and organs, even though the data are very sparse for the organs.

[6] = Metabolic stability in liver microsomes, minipig; type: in vitro ADME
Protocol: (§2) The metabolic stability of compound (I) was tested in liver microsomes from all in house available species at 1 and 5 μM. One metabolite of 16 mass units higher than parent, was found in all incubations, except with human liver microsomes.

[7] = Metabolic stability in liver microsomes, dog; type: in vitro ADME
Protocol: as §2

[8] = Metabolic stability in liver microsomes, human; type: in vitro ADME
Protocol: as §2

CYP 3A4 = CYP 3A4 (Homo sapiens, UniProt P08684); assay: CYP450 inhibition, cocktail of selective substrates, 3A4; type: in vitro ADME; details: CYP 3A4, Midazolam to 1′-hydroxymidazolam; read-out: IC50 of compound (I)
Protocol: Compound (I) was tested for CYP450 inhibition using a cocktail of selective substrates. […] This might be addressed later in a clinical study.

plasma protein [9] = assay: Plasma protein binding by equilibrium dialysis, mouse; type: in vitro ADME
Protocol: (§3) The plasma protein binding was tested in rat, mouse, dog and human plasma by equilibrium dialysis. The plasma protein binding of this compound is remarkably low (Table 24).

plasma protein [10] = assay: Plasma protein binding by equilibrium dialysis, human; type: in vitro ADME
Protocol: as §3

[11] = tested on: Salmonella typhimurium strains TA 100 and TA 98; assay: Ames screening test; type: cell-based; details: 1.6 to 5000 μg/plate, presence or absence of S-9 mix
Protocol: Compound (I) was tested for genotoxicity in the Ames screening test using Salmonella typhimurium strains TA 100 and TA 98. Compound (I) was tested at dose levels of 1.6 to 5000 μg/plate in the presence or absence of S-9 mix.

[12] = Bioavailability study in rat
[13] = 7.5 mg/kg p.o. 0 min + MPTP 25 mg/kg s.c. 60 min
[14] = 15 mg/kg p.o. 0 min + MPTP 25 mg/kg s.c. 60 min
[15] = 30 mg/kg p.o. 0 min + MPTP 25 mg/kg s.c. 60 min
[16] = estimated at MED in mFST (NMRI mice), DOSE 1 mg/kg
[17] = estimated at MED in mMotility, DOSE 10 mg/kg

T3 sequence (Q60857 whole entry): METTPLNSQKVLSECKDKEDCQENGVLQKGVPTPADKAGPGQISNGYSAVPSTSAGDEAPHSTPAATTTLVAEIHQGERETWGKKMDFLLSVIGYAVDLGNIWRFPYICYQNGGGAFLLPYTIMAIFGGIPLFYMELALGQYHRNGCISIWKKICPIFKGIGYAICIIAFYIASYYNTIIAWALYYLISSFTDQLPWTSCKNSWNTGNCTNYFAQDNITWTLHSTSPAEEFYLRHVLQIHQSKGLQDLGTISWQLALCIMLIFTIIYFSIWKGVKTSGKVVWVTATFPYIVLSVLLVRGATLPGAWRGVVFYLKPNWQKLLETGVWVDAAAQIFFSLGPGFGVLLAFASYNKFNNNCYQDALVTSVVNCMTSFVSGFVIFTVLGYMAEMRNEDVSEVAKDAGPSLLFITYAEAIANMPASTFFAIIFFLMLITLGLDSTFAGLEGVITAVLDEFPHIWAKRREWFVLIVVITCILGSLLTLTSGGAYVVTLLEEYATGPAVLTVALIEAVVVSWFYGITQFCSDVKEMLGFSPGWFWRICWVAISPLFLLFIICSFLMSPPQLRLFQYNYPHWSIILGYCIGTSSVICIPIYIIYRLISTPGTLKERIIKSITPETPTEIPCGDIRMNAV
Sequence of Nicotinic α3β4 (P32297 32-505): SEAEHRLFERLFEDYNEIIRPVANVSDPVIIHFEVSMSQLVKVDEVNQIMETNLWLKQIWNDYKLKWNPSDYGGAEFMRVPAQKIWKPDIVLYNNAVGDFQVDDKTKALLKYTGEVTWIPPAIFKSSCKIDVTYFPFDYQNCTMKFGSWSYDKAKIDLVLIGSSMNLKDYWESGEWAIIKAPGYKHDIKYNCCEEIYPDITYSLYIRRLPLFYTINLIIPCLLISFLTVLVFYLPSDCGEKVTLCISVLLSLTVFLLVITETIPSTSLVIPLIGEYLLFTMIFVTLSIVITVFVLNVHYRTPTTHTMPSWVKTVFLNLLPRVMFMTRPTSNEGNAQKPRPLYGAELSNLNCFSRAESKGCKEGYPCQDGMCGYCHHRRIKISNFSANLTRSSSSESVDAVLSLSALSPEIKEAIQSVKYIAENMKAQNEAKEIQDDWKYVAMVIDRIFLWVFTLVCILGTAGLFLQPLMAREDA
Sequence of Nicotinic α3β4 (P30926 22-498): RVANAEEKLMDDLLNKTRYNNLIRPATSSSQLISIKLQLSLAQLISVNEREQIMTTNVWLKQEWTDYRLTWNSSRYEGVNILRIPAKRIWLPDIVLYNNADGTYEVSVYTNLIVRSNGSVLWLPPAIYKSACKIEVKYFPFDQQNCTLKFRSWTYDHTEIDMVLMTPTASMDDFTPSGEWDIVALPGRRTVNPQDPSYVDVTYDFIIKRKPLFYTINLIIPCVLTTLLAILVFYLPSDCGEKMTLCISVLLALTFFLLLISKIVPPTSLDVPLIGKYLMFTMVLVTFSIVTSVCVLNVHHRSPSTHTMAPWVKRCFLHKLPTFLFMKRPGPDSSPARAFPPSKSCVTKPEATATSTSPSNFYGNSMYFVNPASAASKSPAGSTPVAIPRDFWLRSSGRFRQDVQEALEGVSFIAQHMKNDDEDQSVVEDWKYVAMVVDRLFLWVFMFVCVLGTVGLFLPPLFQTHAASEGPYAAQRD
T2 sequence (Q61327 whole entry): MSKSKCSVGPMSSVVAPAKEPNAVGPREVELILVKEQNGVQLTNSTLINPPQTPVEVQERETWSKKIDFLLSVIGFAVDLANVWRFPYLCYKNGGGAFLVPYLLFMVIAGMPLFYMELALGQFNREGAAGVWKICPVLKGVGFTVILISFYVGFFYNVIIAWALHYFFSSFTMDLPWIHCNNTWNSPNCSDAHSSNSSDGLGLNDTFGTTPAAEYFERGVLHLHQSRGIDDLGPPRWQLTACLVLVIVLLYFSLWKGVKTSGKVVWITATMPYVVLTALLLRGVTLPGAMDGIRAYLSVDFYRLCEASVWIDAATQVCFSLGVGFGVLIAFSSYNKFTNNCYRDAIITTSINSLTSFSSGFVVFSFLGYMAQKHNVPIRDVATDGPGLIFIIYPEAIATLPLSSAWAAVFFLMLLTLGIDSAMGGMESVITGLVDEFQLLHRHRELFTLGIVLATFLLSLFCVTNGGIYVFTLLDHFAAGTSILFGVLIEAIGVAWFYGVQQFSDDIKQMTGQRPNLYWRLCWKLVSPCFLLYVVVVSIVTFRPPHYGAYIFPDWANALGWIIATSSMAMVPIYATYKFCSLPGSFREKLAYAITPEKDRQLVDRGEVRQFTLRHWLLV
T1 sequence (Q61327 whole entry): as above
Sequence of CYP 3A4 (P08684 whole entry): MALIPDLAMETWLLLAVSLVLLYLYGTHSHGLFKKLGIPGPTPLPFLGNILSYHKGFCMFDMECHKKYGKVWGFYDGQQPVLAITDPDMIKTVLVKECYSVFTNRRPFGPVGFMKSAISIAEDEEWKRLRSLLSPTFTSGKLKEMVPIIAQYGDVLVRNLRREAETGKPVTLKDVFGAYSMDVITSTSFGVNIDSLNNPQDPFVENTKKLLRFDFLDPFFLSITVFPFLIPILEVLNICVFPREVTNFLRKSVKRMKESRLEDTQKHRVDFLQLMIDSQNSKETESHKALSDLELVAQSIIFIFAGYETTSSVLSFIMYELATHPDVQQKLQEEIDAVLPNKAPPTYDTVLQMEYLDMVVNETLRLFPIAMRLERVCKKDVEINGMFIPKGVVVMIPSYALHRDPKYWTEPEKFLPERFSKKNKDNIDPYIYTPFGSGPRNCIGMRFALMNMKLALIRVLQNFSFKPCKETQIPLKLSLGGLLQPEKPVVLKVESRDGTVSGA
Sequence of 5-HT transporter (Rattus norvegicus, UniProt P31652) (P31652 whole entry): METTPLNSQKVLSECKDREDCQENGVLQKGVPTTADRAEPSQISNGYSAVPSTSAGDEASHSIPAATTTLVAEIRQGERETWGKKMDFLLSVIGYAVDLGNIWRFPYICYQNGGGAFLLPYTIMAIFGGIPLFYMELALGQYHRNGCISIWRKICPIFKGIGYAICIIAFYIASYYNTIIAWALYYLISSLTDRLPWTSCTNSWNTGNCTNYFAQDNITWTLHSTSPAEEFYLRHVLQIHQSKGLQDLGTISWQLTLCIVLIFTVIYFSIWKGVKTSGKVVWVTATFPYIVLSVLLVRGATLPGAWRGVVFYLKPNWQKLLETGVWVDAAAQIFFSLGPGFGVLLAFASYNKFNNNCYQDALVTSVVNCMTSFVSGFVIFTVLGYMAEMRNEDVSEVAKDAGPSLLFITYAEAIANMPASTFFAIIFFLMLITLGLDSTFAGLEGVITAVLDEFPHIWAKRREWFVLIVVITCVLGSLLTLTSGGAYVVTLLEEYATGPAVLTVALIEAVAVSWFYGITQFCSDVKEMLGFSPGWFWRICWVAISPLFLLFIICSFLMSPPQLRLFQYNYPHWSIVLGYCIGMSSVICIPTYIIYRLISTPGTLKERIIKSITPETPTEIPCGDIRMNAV

## O=c1ccc2ccc(O[C@@H]3C[C@H]4CC[C@@H](C3)N4)cc2o1 [Compound (I), exo-7-(8-aza-bicyclo[3.2.1]oct-3-yloxy)-chromen-2-one]
5-HT transporter [1]
  Ki: 0.00028 µM
Nicotinic α3β4
  Ki: 5.05 µM
Nicotinic α3β4; Nicotinic acetylcholine Ki versus hDAT Ki 155 nM
  Separation to transporter hDAT: x32
Nicotinic α3β4; Nicotinic acetylcholine Ki versus hNET Ki 594 nM
  Separation to transporter hNET: x8.5
Nicotinic α3β4; Nicotinic α3β4, Human, 10 μM
  inhibition at 10 µM: 57%
[2]; Hippocampus, 3 mg/kg s.c., 3 mg/kg
  5-HT (AUC0-160 min): 433±53%
[2]; N.Acc, 10 mg/kg s.c.
  5-HT (AUC0-160 min): 151 ± 17%
[2]; Pre-frontal cortex, 0.25 mg/kg s.c., 0.25 mg/kg
  5-HT (AUC0-160 min): 190±15%
[2]; Pre-frontal cortex, 1 mg/kg s.c., 1 mg/kg
  5-HT (AUC0-160 min): 252±48%
[2]; Pre-frontal cortex, 10 mg/kg s.c., 10 mg/kg
  5-HT (AUC0-160 min): 263±47%
[2]; Pre-frontal cortex, WAY100365 0.1 mg/kg + compound (I) 0.25 mg/kg
  5-HT (AUC0-160 min): 253 ± 32%
[2]; Striatum, 3 mg/kg s.c.
  5-HT (AUC0-160 min): 138 ± 31%
[2]; Striatum, 10 mg/kg s.c.
  5-HT (AUC0-160 min): 170 ± 12%
[3]; [13]
  DOPAC Mean ± SEM: 1 ± 0.2
  Dopamine Mean ± SEM: 6.3 ± 1.1
  HVA Mean ± SEM: 0.7 ± 0.1
[3]; [14]
  DOPAC Mean ± SEM: 1.7 ± 0.1^
  Dopamine Mean ± SEM: 12.5 ± 0.7
  HVA Mean ± SEM: 1 ± 0.1
[3]; 15 mg/kg, C57 mouse striatal tissue
  Protection against MPTP-induced dopamine depletion: approximately 90%
[3]; [15]
  DOPAC Mean ± SEM: 2.1 ± 0.2^
  Dopamine Mean ± SEM: 14.7 ± 1.2
  HVA Mean ± SEM: 1.2 ± 0.1
DA transporter; [16]
  DA RO %: 9%
DA transporter; [17]
  DA RO %: 50%
DA transporter; mice, 20 mg/kg p.o.
  In vivo WIN binding time course: slow onset of DA transporter blockade in vivo
DA transporter; mouse, brain, po, mice, 3, 10 and 30 mg/kg p.o., 90 min post administration, read-out: Brain to plasma ratio
  Kp at 1.5 h: ~4
DA transporter; mouse, po, read-out: ED50 in WIN in vivo binding in mice
  ED50: 9.9 mg/kg
5-HT transporter [4]; [16]
  5-HT RO %: 34%
5-HT transporter [4]; [17]
  5-HT RO %: 84%
5-HT transporter [4]; mouse, po
  ED50: 1.9 mg/kg
[5]; Brain
  AUC(0-t): 9350 ng·h/mL
  half-life: 3 h
[5]; Liver
  AUC(0-t): 38500 ng·h/mL
  half-life: 2.5 h
[5]; Lung
  AUC(0-t): 35700 ng·h/mL
  half-life: 2.2 h
[5]; Plasma
  AUC(0-t): 2220 ng·h/mL
  half-life: 1.1 h
[6]
  Stability at 1 μM: 88%
  Stability at 5 μM: 98%
[7]
  Stability at 1 μM: 100%
  Stability at 5 μM: 90%
[8]
  Metabolite (mass units higher than parent): None
  Stability at 1 μM: 94%
  Stability at 5 μM: 93%
CYP 3A4
  IC50: > 100 µM
Plasma protein [9]
  fraction unbound at 2710 ng/ml: 0.747
Plasma protein [10]
  fraction unbound at 2710 ng/ml: 0.714
[11]
  Mutagenic activity (genotoxicity): did not show any evidence of mutagenic activity
[12]; rat, 2.5 mg/kg i.v., 2.5 mg/kg
  T½ i.v.: 0.6 h
[12]; rats, 10 mg/kg i.v.
  Tolerability of i.v. dose: *Rats could not tolerate 10 mg/kg i.v. because of exaggerated dopaminergic effects.
